Structures can show the parent of a compound that is named as a salt.
Columns and labels:
Sprague-Dawley rats = assay: Acute Toxicity Study (single oral dose, mortality); format: in vivo, rat (Sprague-Dawley); conditions: for Mortality, Female / Mortality, Male: single oral gavage, observed for 15 days; for Mortality, Female: female rats; for Mortality, Male: male rats
Method: (§1) A single equimolar dose of each compound is administered orally by gavage as a 3% corn starch suspension to 5 female and 5 male Sprague-Dawley rats. The animals are there observed for 15 days.
(§2) The comparative incidence of mortality for the free acid of formula I, the triethanolamine salt thereof and the tromethamine salt of formula II are as follows: […]

[1] = Acute Toxicity Study (single oral dose, mortality); format: in vivo, rat (Sprague-Dawley); conditions: rat, in vivo, po, 2400 umol/kg, 2.4 millimoles/Kg p.o., rat, both sexes; read-out: mortality rate
Method: as §1, §2

cell-mediated immunity = assay: enhancement of depressed cell-mediated immunity; format: in vivo, rat; conditions: in words
Method: Immunopotentiating effects can be determined in BCG-immunized animals. In vitro, the enhancement of cell-mediated immunity is determined by measuring the increase in chemotaxis of macrophages isolated from BCG-immunized rats. In vivo, such is determined in the BCG-immunized adjuvant arthritic rat by measuring the effect on delayed hypersensitivity reaction essentially as described in Current Therapeutic Research 30, S34 (1981).

cartilage matrix = assay: inhibition of cartilage matrix degradation; format: cell-based, bovine; conditions: in words
Method: The effect on cartilage matrix degradation can be determined in the cartilage-synovium co-culture model of matrix degradation which is carried out as follows:
The proteoglycan matrix of bovine nasal septum cartilage is labeled in vitro by incorporation of ^35 S into glycosaminoglycan. Cartilage slices are incubated overnight in a sulfate-free medium containing ^35 S-sodium sulfate. ^35 S-Labeled cartilage slices are co-cultured with normal synovium explants in multiwell tissue culture plates. After 4 days incubation a 100 μl aliquot of medium is counted. Cartilage slices are hydrolyzed and a 100 μl aliquot of cartilage hydrolysate is counted. The percent ^35 S released into the medium is determined and the percent of inhibition of matrix degradation is calculated.

[2] = antiinflammatory activity; format: in vivo; conditions: in words
Method: The compound can be administered to the animals either enterally, preferably orally, parenterally, e.g. subcutaneously or intravenously, or topically, for example, in the form of aqueous solutions or suspensions. The applied dosage may range between about 0.1 and 100 mg/kg/day, preferably between about 1 and 50 mg/kg/day. The tests include the classical in vivo assay methods for said activities, such as the carrageenin paw-edema, adjuvant arthritis tests in rats, and the canine synovitis test.

[3] = tolerability at therapeutically effective doses; format: in vivo
[4] = 2.4 Millimoles/Kg, listed as II
[5] = 3.6 Millimoles/Kg, listed as II

## Cn1cccc1C(=O)C(C#N)C(=O)Nc1ccccc1 (stereo not drawn) [formula I, 1-methyl-beta-oxo-alpha-phenylcarbamoyl-2-pyrrolepropionitrile]
Sprague-Dawley rats; 1.2 Millimoles/Kg
  Mortality, Female: 0/5
  Mortality, Male: 0/5
Sprague-Dawley rats; 2.4 Millimoles/Kg, listed as I
  Mortality, Female: 2/5
  Mortality, Male: 2/5
Sprague-Dawley rats; 2.4 millimoles/Kg p.o., rat, both sexes, 21600 min
  mortality rate: 40%
Sprague-Dawley rats; 3.6 Millimoles/Kg, listed as I
  Mortality, Female: 4/5
  Mortality, Male: 4/5

## Cn1cccc1C(=O)C(C#N)C(=O)Nc1ccccc1 (stereo not drawn) [triethanolamine salt, triethanolamine salt of 1-methyl-beta-oxo-alpha-(phenylcarbamoyl)-2-propionitrile]
Sprague-Dawley rats; 2.4 Millimoles/Kg
  Mortality, Female: 3/5
  Mortality, Male: 2/5
Sprague-Dawley rats; 3.6 Millimoles/Kg
  Mortality, Female: 5/5
  Mortality, Male: 5/5
[1]
  mortality at 360 h: 50%

## Cn1cccc1C(=O)C(C#N)C(=O)Nc1ccccc1 (stereo not drawn) [formula II, 1-methyl-beta-oxo-alpha-(phenylcarbamoyl)-2-pyrrolepropionitrile (1:1) tromethamine salt]
cell-mediated immunity
  enhancement of depressed cell-mediated immunity: enhancement of depressed cell-mediated immunity
Cartilage matrix
  inhibition of cartilage matrix degradation: inhibition of cartilage matrix degradation
[2]
  antiinflammatory activity: displays antiinflammatory
[3]
  tolerability: well tolerated
  undesirable side effects: essentially free of undesirable side effects
Sprague-Dawley rats; [4]
  Mortality, Female: 0/5
  Mortality, Male: 0/5
Sprague-Dawley rats; 2.4 millimoles/Kg p.o., rat, both sexes
  deaths (animals): 0/10
Sprague-Dawley rats; [5]
  Mortality, Female: 5/5
  Mortality, Male: 5/5
Sprague-Dawley rats; rat, in words
  acute toxicity compared with free acid of formula I or the triethanolamine salt: less toxic than the free acid of formula I or the triethanolamine salt thereof

Source: patent publication US4977181A, “Tromethamine salt of 1-methyl-beta-oxo-alpha-(phenylcarbamoyl)-2-pyrrolepropionitrile” (priority 1989, dated 1990)
